Columns and labels:
[1] = high dosage, people with risk factors such as smoking; cited from earlier work
[2] = Laser-verteporfin photodynamic therapy in a patient with wet macular degeneration who was taking zeaxanthin; assay type: in vivo, human; settings: one patient, zeaxanthin 20 milligrams per day for several months before treatment
Excerpt: Additional insights arose from a fortuitous event involving an elderly acquaintance of the Applicant, who was taking zeaxanthin and who decided to have a treatment known as “photodynamic therapy”, which uses a laser to convert a drug called verteporfin into a toxin that will kill and seal newly-growing blood vessels in the retina. The patient's doctor, who is regarded as one of the world's foremost experts in treating macular degeneration, advised the patient to stop taking zeaxanthin before the laser treatment, because (in the physician's opinion) it likely would not help, and it might interfere with the laser treatment. That advice was entirely consistent with the packaging information that accompanies verteporfin, which states that carotenoids should be avoided before treatment, since they may interfere with the treatment.
That discovery and invention arose from an event involving a personal acquaintance of the Inventor. That person was suffering from the “wet” or “exudative” form of macular degeneration, which involves abnormal and aggressive blood vessel growth in and behind the macula. They decided to have a treatment known as “photodynamic therapy”, which uses a laser that is shone directly into the eye of a patient who has been anesthetized. […]

[3] = system: rabbit or bovine RPE cells; settings: added to RPE cell cultures; high oxygen concentrations or intense blue light; Sundelin 2001, Shaban 2002, Nilsson 2003; cited from earlier work
ABCR −/− mice = settings: mice with genetically engineered ABCR −/− gene defect; Radu et al 2003, US 2003/032,078; cited from earlier work
[4] = system: short chain dehydrogenase enzyme that converts 11-cis-retinol into 11-cis-retinal; settings: Radu et al 2003; cited from earlier work
RPE65 = settings: Gollapalli et al 2004; cited from earlier work
RPE65, sequence (Q16518 whole entry, species assumed): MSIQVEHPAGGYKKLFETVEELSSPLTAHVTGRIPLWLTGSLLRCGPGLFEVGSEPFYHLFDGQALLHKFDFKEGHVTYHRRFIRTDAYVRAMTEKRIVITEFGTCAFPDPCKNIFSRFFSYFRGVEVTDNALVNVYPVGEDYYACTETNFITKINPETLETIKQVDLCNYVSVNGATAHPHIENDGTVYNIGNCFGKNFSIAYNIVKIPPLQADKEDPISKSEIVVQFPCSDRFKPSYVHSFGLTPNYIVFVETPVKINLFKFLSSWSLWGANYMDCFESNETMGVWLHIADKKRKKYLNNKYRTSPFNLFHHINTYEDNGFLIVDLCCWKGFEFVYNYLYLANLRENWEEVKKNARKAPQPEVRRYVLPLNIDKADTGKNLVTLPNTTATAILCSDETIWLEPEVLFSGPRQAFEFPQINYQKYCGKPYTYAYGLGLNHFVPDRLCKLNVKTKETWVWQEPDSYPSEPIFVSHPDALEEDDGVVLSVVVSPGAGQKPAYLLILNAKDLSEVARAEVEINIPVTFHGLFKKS

[5] = people taking isotretinoin; decreased acuity under moderately dark conditions; cited from earlier work

| Compound | cell toxicity [3] | formation of lipofuscin [3] | other results |
| --- | --- | --- | --- |
| CC1=C(/C=C/C(C)=C/C=C/C(C)=C/C=C/C=C(C)/C=C/C=C(C)/C=C/C2=C(C)CCCC2(C)C)C(C)(C)CCC1 [beta-carotene] |  |  | rates and risks of lung cancer [1]: actually increases the rates and risks of lung cancer |
| CC1=C(/C=C/C(C)=C/C=C/C(C)=C/C=C/C=C(C)/C=C/C=C(C)/C=C/C2=C(C)C[C@@H](O)CC2(C)C)C(C)(C)C[C@H](O)C1 [zeaxanthin, 3R,3′R-zeaxanthin] | helped suppress cell toxicity | helped suppress cell toxicity and the formation of lipofuscin | results of the laser-verteporfin treatment [2]: much better than anyone had expected |
| Vitamin E | helped suppress cell toxicity | helped suppress cell toxicity and the formation of lipofuscin |  |
| CC(C)=CCC/C(C)=C/C=C/C(C)=C/C=C/C(C)=C/C=C/C=C(C)/C=C/C=C(C)/C=C/C=C(\C)CCC=C(C)C [lycopene] | helped suppress cell toxicity | helped suppress cell toxicity and the formation of lipofuscin |  |
| CC1=C(/C=C/C(C)=C/C=C/C(C)=C\C(=O)O)C(C)(C)CCC1 [isotretinoin, 13-cis-retinoic acid] |  |  | accumulation of lipofuscin in the retinas (ABCR −/− mice): can help slow and reduce the accumulation of lipofuscin; inhibition of short chain dehydrogenase [4]: inhibit at least two different enzymes involved in vision; inhibition of RPE65 (RPE65): inhibit at least two different enzymes involved in vision; vision side effect [5]: night blindness |
| O=C1O[C@H]([C@@H](O)CO)C(O)=C1O [Vitamin C] |  | helped suppress cell toxicity and the formation of lipofuscin |  |
| CC1=C[C@H](O)CC(C)(C)[C@H]1/C=C/C(C)=C/C=C/C(C)=C/C=C/C=C(C)/C=C/C=C(C)/C=C/C1=C(C)C[C@@H](O)CC1(C)C [lutein] | helped suppress cell toxicity | helped suppress cell toxicity and the formation of lipofuscin |  |

Reference: patent publication US20060089411A1, “Treatment of Stargardt's disease and other lipofuscin disorders with combined retinaldehyde inhibitor and zeaxanthin” (priority 2004, published 2006)
